The results in this text go back to patent publication US6762189B1, “5-pyrimidinecarboxamide derivatives and the pharmaceutical compositions containing said derivatives” (Dong Wha Pharm. Ind. Co., Ltd., priority 1999, dated 2004).

One series deals with HBV. The series is described as follows: Inhibition of HBV proliferation in HBV producing cell line HepG 2.2.15 (competitive PCR of culture supernatant). The class given is cell-based, Hepatitis B virus. The settings on record: Hepatitis B virus, HepG2.2.15, 168 h, HepG 2.2.15, one week, read-out: Inhibitory effect on the HBV proliferation, Inhibition activity on HBV-RT (%); for inhibition at 0.01 µg/mL: 0.01 μg/ml; for inhibition at 0.1 µg/mL: 0.1 μg/ml; for inhibition at 1 µg/mL: 1 μg/ml. As for the experimental part: The following experiment was performed to determine inhibitory effects of compounds of formula on the proliferation of HBV producing cell line.
To test for antiviral effect, replication and proliferation of HBV were measured in HepG 2.2.15, a human liver cancer cell line.
The cell concentration was adjusted to 1×10^5 cells/ml and 1 ml was added to each well of a 24-well cell culture plate, which was then kept in a culture box for 3-4 days at 37° C. under 5% CO2 until cells grew sufficiently, changing culture medium everyday. When the cells matured sufficiently, the test compounds were added to the final concentrations of 0.01, 0.1, and 1 μg/ml. One week after the addition of test compounds, he culture solution was centrifuged at 5,000 rpm for 10 min. 25 μl of supernatant was transferred to a new tube and 5 μl of lysis solution [0.54N NaOH, 0.06% NP40] was added to each tube. After keeping the tube at 37° C. for 1 hr, 30 μl . of neutralizing solution [0.09NHCl, 0.1MTris-HCl, pH7.4] was added as a reaction solution for competitive polymerase chain reaction (PCR).
PCR was performed using genetic sequence of HBV core protein as a matrix. PCR reaction was carried out by adding 1 unit of Taq polymerase enzyme to 25 pmol of each primer, 250 μM dNTP, 5 μl of PCR reaction solution [0.54N NaOH, 0.06% NP40, 0.09N HCl, 0.1M Tris-HCl, pH 7.4].
DNA polymerized by PCR was electrophoresed on Agarose gel and quantitatively analyzed using an image analyzer (Gel Dcc 1000, Bio-Rad) in order to evaluate the effect of compounds of the present invention on the reduction of HBV proliferation.
3TC (lamivudine) was used as a positive control at the same concentrations as those of the test compounds. The percentage of reduction in HBV proliferation was calculated using the group without test compound as a control and the results are represented in Table 4.

The target of series [1] is T1, HIV reverse transcriptase (Human immunodeficiency virus type 1 group M subtype B, UniProt P04585).
T1 construct: activities of HIV reverse transcriptase; purchased Boehringer Mannheim
The series is described as follows: In vitro HIV reverse transcriptase activity (non-radioactive reverse transcriptase assay kit). The settings on record: for Inhibitory effect on the activities of HIV reverse transcriptase, Inhibition activity on HBV-RT (%): 0.1 μg/ml test compound; for Inhibition of HIV reverse transcriptase activity: 1 μg/ml test compound. Type of series: biochemical. As for the experimental part:
The following in vitro experiments were done to determine the effect of compounds of formula 1 on the reduction of HIV enzyme activities in reverse transcription.
Non-radioactive reverse transcriptase assay kit (Boehringer Mannheim) was used in the measurement of in vitro transcriptase activities. 20 μl (40 ng) of HIV transcriptase and 20 μl of reaction mixture containing matrix-primer hybrid poly (A) oligo (dT) 15, DIG(digoxigenin)-dUTP, biotin-dUTP, and TTP were added to wells coated with streptavidin. Test compounds were also added at the final concentrations of 0.1 and 1 μg/ml and allowed to react at 37° C. for 1 hr. At this time, DNA is formed from RNA by the action of HIV transcriptase, forming bonds with streptavidin coated on the bottom of wells because of digoxigenin and biotin moieties attached to nucleotides.
When the reaction was completed, each well was washed with 250 μl. of cleaning buffer (pH 7.0) for 30 sec. five times to remove remaining impurities. 200 μl of anti-DIG-POD […] was added to each well, allowed to react at 37° C. for 1 hr and washed as above to remove impurities. 200 μl of ABTS™, a substrate for peroxidase, was added to each well and allowed to react at room temperature for 30min. Absorbance at 405 nm was then read for each solution using ELISA reader and used for quantitative determination of inhibitory effect on the HIV transcriptase activities. The percentage of reduction in the activities of HIV reverse transcriptase was calculated using the group without test compound as control and the results are represented in Table 5.

In a further series the target is T2, HBV polymerase (Hepatitis B virus genotype A2 subtype adw2, UniProt P03159).
T2 construct: made in house; host or cells: E. coli
The series is described as follows: In vitro reverse transcription activity of HBV polymerase (ELISA-type, DIG/biotin nucleotides). Type of series: biochemical. The settings on record: read-out: Inhibition activity on HBV-RT (%); for inhibition at 0.01 µg/mL: 0.01 μg/ml test compound; for inhibition at 0.1 µg/mL: 0.1 μg/ml test compound; for inhibition at 1 µg/mL: 1 μg/ml test compound. As for the experimental part: The following in vitro experiment was performed to determine the effect of the compounds of formula 1 on the activity of HBV polymerase during reverse transcription.
The present inventors submitted application for a patent concerning HBV polymerase genetically expressed in and separated from E. coli, the process of its preparation, and the method to measure the enzyme activities (KR 94-3918, KR 96-33998). In the present experiments HBV polymerase was used which had been expressed in E. coli as stated above.
The method used in the present invention to measure in vitro reverse transcribing activities of HBV polymerase is as follows. Basic principles are the same as for ELISA. Nucleotides with biotin or digoxigenin group attached are included as substrates and anti-DIG antibodies attached to peroxidase enzyme recognize the polymerized substrates.
To the wells coated with streptavidin, 20 μl of HBV polymerase, 20 μl of reaction mixture (10 μM each of DIG-UTP and Biotin-UTP, 46 mM Tris-HCl, 266 mM KCl, 27.5 mM MgCl2, 9.2 mM DTT substrate/primer hybrid), and 20 μl of test compound (added to 1, 0.1, and 0.01 μg/ml) were added and allowed to react a 22° C. for 15 hrs. During this reaction, HBV polymerase catalyzes DNA synthesis and digoxigenin and biotin attached to nucleotides form bonds with streptavidin coated on the bottom of wells. When the reaction was done, each well was washed with 250μl of cleaning buffer (pH 7.0) for 30 seconds, which was repeated five times to remove remaining impurities. 200 μl of anti-DIG-POD antibody was added to each well and allowed to react for 1 hr at 37° C., and the wells were washed with cleaning buffer to remove impurities. 200μl each of ABTS™, a substrate of peroxidase, was then added and allowed to react at room temperature for 30 min. Absorbance was measured at 405 nm using ELISA reader.
The percentage of reduction in HBV polymerase activities for reverse transcription was calculated using the group without test compound as a control and the results are shown in Table 3.
For orientation: An ELISA detects its analyte on a solid surface through an enzyme-linked reagent.

A short description of series [2]: Cytotoxicity test on HepG2 cells (MTT). Type of series: cell-based. The settings on record: human, read-out: Cytotoxity on HepG2, IC50 (50% Inhibitory Concentration).
The test system of a further series is HepG2 cells. Put plainly: Cytotoxicity test on HepG2 cells (MTT). The class given is cell-based.

SMILES strings stand for the structures. A value given as a limit tells only on which side of the number the result lay.

T2 sequence (P03159 whole entry): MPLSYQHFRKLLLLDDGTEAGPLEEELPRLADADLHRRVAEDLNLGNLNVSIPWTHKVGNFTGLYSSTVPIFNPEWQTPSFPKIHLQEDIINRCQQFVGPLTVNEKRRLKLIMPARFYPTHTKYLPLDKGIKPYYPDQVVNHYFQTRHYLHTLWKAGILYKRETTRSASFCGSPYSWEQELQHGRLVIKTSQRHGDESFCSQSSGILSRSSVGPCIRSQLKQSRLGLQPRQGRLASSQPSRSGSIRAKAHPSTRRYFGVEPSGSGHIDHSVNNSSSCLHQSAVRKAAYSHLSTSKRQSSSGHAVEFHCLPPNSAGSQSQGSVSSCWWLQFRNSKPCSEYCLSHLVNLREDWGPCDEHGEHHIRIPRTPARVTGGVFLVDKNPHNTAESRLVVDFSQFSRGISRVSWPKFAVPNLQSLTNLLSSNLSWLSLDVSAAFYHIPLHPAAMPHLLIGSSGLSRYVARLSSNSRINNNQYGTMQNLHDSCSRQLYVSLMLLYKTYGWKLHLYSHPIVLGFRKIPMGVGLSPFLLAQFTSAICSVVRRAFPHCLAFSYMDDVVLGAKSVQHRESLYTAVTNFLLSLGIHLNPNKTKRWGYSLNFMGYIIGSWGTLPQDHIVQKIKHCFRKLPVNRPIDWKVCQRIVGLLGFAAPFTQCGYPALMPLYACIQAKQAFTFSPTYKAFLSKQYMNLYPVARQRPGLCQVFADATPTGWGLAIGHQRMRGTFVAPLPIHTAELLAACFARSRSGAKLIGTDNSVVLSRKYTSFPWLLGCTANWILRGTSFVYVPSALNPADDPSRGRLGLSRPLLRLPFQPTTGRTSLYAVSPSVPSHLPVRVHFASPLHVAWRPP

In the case of `CSc1ncc(C(=O)NCCN(C)C)c(Nc2ccc3cn[nH]c3c2)n1` [Example 18, N-[2-(dimethylamino)ethyl]-4-(1H-6-indazolylamino)-2-methylthio-5-pyrimidinecarboxamide], the melting point (as a rule, the temperature, or range, at which the solid turns liquid) was 162 to 167 °C. Further, in the series on HBV, the inhibition at 0.01 µg/mL was determined as 43%, the inhibition at 0.1 µg/mL came to 57% and the inhibition at 1 µg/mL is 88%. In series [1], the “Inhibitory effect on the activities of HIV reverse transcriptase, Inhibition activity on HBV-RT (%)” value (shortened to “Inhibitory effect on the activities … (%)”) is listed as 51% and the “Inhibition of HIV reverse transcriptase activity” value turned out to be 77%. For the same molecule, at HBV polymerase, the inhibition at 0.01 µg/mL stood at 54%, the inhibition at 0.1 µg/mL was 66% and the inhibition at 1 µg/mL turned out to be 92%.

`CSc1ncc(C(=O)NCCN2CCOCC2)c(Nc2ccc3[nH]ncc3c2)n1` [Example 19, 4-(1H-5-indazolylamino)-2-methylthio-N-[2-(4-morpholinyl)ethyl]-5-pyrimidinecarboxamide]: the melting point fell in the range of 113 to 117 °C. In series [1], the “Inhibitory effect on the activities … (%)” value came to 48% and the “Inhibition of HIV reverse transcriptase activity” value was determined as 75%. For the same molecule, on HBV polymerase, the inhibition at 0.01 µg/mL is 10%, the inhibition at 0.1 µg/mL came to 39% and the inhibition at 1 µg/mL turned out to be 64%.

Molecule `CSc1ncc(C(=O)N(C)C)c(Nc2ccc3[nH]ncc3c2)n1` [Example 15, N,N-dimethyl-4-(1H-5-indazolylamino)-2-methylthio-5-pyrimidinecarboxamide] showed a melting point of 101 to 105 °C. Also, in the series on HBV, the inhibition at 0.01 µg/mL was found to be 25%, the inhibition at 0.1 µg/mL amounted to 52% and the inhibition at 1 µg/mL was 70%. Also, at HBV polymerase, the inhibition at 0.01 µg/mL was found to be 42%, the inhibition at 0.1 µg/mL amounted to 61% and the inhibition at 1 µg/mL worked out at 77%.

With `CSc1ncc(C(=O)N(C)C)c(Nc2ccc3cn[nH]c3c2)n1` [Example 16, N,N-dimethyl-4-(1H-6-indazolylamino)-2-methylthio-5-pyrimidinecarboxamide], the melting point is 164 to 166 °C. In series [1], the “Inhibitory effect on the activities … (%)” value amounted to 53% and the “Inhibition of HIV reverse transcriptase activity” value is 81%. Moreover, on HBV polymerase, the inhibition at 0.01 µg/mL stood at 10%, the inhibition at 0.1 µg/mL was found to be 30% and the inhibition at 1 µg/mL is 54%.

The molecule `CSc1ncc(C(=O)NCCc2ccccn2)c(Nc2ccc3cn[nH]c3c2)n1` [Example 28, 4-(1H-6-indazolylamino)-2-methylthio-N-[2-(2-pyridyl)ethyl]-5-pyrimidinecarboxamide] showed a melting point of 230 to 231 °C. Further, in the series on HBV, the inhibition at 0.01 µg/mL turned out to be 44%, the inhibition at 0.1 µg/mL is 68% and the inhibition at 1 µg/mL is 93%. At HBV polymerase, the inhibition at 0.01 µg/mL was determined as 52%, the inhibition at 0.1 µg/mL amounted to 70% and the inhibition at 1 µg/mL was 95%.

As to `CSc1ncc(C(=O)NCCc2ccccn2)c(Nc2ccc3[nH]ncc3c2)n1` [Example 27, 4-(1H-5-indazolylamino)-2-methylthio-N-[2-(2-pyridyl)ethyl]-5-pyrimidinecarboxamide], the melting point fell in the range of 220 to 223 °C. In the series with HBV, the inhibition at 0.01 µg/mL was 38%, the inhibition at 0.1 µg/mL turned out to be 55% and the inhibition at 1 µg/mL is 84%. Moreover, on HBV polymerase, the inhibition at 0.01 µg/mL came to 48%, the inhibition at 0.1 µg/mL came out at 60% and the inhibition at 1 µg/mL came out at 88%.

With `CSc1ncc(C(=O)NCCCn2ccnc2)c(Nc2ccc3[nH]ncc3c2)n1` [Example 29, N-[3-(1H-1-imidazolyl)propyl]-4-(1H-5-indazolylamino)-2-methylthio-5-pyrimidinecarboxamide], the melting point is 121 to 125 °C. Further, in series [1], the “Inhibitory effect on the activities … (%)” value came to 44% and the “Inhibition of HIV reverse transcriptase activity” value stood at 72%. Besides, at HBV polymerase, the inhibition at 0.01 µg/mL was 41%, the inhibition at 0.1 µg/mL turned out to be 56% and the inhibition at 1 µg/mL came out at 80%.

Turning to `CSc1ncc(C(=O)NCc2cccnc2)c(Nc2ccc3[nH]ncc3c2)n1` [Example 25, 4-(1H-5-indazolylamino)-2-methylthio-N-(3-pyridyl)methyl-5-pyrimidinecarboxamide], the melting point lay within 268 to 270 °C. Moreover, in the series with HBV, the inhibition at 0.01 µg/mL is 40%, the inhibition at 0.1 µg/mL worked out at 65% and the inhibition at 1 µg/mL came out at 92%. In addition, on HBV polymerase, the inhibition at 0.01 µg/mL amounted to 53%, the inhibition at 0.1 µg/mL stood at 76% and the inhibition at 1 µg/mL came to 97%.

Take `CSc1ncc(C(=O)NCc2cccnc2)c(Nc2ccc3cn[nH]c3c2)n1` [Example 26, 4-(1H-6-indazolylamino)-2-methylthio-N-(3-pyridyl)methyl-5-pyrimidinecarboxamide]: the melting point is 253 to 256 °C. Besides, in the series with HBV, the inhibition at 0.01 µg/mL was 47%, the inhibition at 0.1 µg/mL worked out at 75% and the inhibition at 1 µg/mL was determined as 97%. Moreover, on HBV polymerase, the inhibition at 0.01 µg/mL came to 55%, the inhibition at 0.1 µg/mL worked out at 79% and the inhibition at 1 µg/mL worked out at 98%.

As for `CSc1ncc(C(=O)NCCO)c(Nc2ccc3cn[nH]c3c2)n1` [Example 8, N-(2-hydroxyethyl)-4-(1H-6-indazolylamino)-2-methylthio-5-pyrimidine Carboxamide], in the series on HBV, the inhibition at 0.01 µg/mL was 40%, the inhibition at 0.1 µg/mL came out at 72% and the inhibition at 1 µg/mL is 88%. For the same molecule, in series [2], the IC50 was > 100 µg/mL. Besides, in the series on HepG2 cells, the “Cytotoxity on HepG2, MCD (Minimal Cytotoxic Concentration)” value was 100 µg/mL. Besides, on HBV polymerase, the inhibition at 0.01 µg/mL was 50%, the inhibition at 0.1 µg/mL was 68% and the inhibition at 1 µg/mL was determined as 95%.
